Results from article PMC9227536, “Prediction of Pharmacokinetics of IDP-73152 in Humans Using Physiologically-Based Pharmacokinetics” (Pharmaceutics, 2022).

Legend:
[1] = Stability in plasma, rat; type: in vitro ADME, rats
Description: The unbound fractions of IDP-73152 in various matrices were measured according to the manufacturer's instructions for the rapid equilibrium dialysis (RED) device (ThermoFisher Scientific, Waltham, MA, USA). Briefly, IDP-73152 was added to the plasma or the microsomal/hepatocyte incubation buffer from various species (i.e., mouse, rat, dog, and human for microsomal incubation; rat for hepatocyte incubation) to obtain final concentrations of the compound at 0.3, 1, and 3 μM. After the membrane insert was placed in the RED plate, the solution containing IDP-73152 was added (400 μL) to the sample chamber, and the dialysis buffer (600 μL) was added to the buffer chamber. The RED plate was sealed with parafilm and then incubated at 37 °C in the orbital shaker (Lab Companion, Daejeon, Korea) at 100 rpm for 5 h. […] The IDP-73152 concentration in the buffer/sample chambers (i.e., CBuffer Chamber and CSample Chamber) was determined by an assay. Thus, the fraction unbound was defined as:(2) % Fraction unbound=(CBuffer Chamber/CSample Chamber)×100% When necessary, the stability of IDP-73152 in the matrix was also determined at 5 h. […] Accordingly, the kinetics of IDP-73152 instability were determined in the rat blood at a final concentration of 0.3 μM. […]

[2] = PBPK model prediction, mice
Text: In this study, the PBPK model involving ten tissues (i.e., adipose tissue, brain, heart, kidney, liver, lung, muscle, skin, spleen, and testis (Figure 2; see Appendix A for detailed mathematical descriptions)) was considered to be applicable for the description of IDP-73152 PK in rats, mice, dogs, and humans. Physiological variables were obtained from the literature; they are summarized in Supplementary Table S1.
For the estimation of the volume of the distribution of IDP-73512 in rats, the steady-state volume of distribution (Vss) was calculated using the following equation [30]:(10) Vss=VP+Vrbc×EP+∑VT,i×KP,ss,i, where Vp, Vrbc, and VT,i are the volumes of plasma, red blood cells, and tissues, respectively. The erythrocyte-to-plasma partition coefficient (EP), is calculated by EP=1+(BP−1)/Hematocrit . The KP,ss for each tissue obtained from Equation (8) was applied for Equation (10). For the case of non-eliminating organs, the KP,ss was regarded as the tissue-to-plasma partition coefficient (KP) in PBPK equations (Appendix A). For the case of the liver—i.e., the eliminating organ—the KP,ss (KP,ss,LI) had to be corrected to account for the equilibrium being altered by the elimination. Thus, a PBPK-operative KP for liver (KP,LI) was calculated using the following equation [31]:(11) KP,LI=KP,ss,LI/(1−ER), where ER is the hepatic extraction ratio of the compound (i.e., CLh/(QLI·BP)). In this study, a compartmental absorption and transit (CAT) model consisting of stomach and five intestinal segments was considered for the description of the intestinal absorption kinetics of IDP-73152 in animals and humans. We assumed that the initial compartment denoted the stomach (Equation (12)), and the subsequent three compartments represented the small intestine and two additional compartments for the large intestine (i.e., a total of six compartments, with absorption occurring in the five intestinal compartments) (Equation (13)). The differential equations describing the rate of drug absorption and transit in the gastrointestinal tract can be written as:
For the intestine, viz. i = 1~5:(13) dMi/dt=Kt,i−1×Mi−1−(Kt,i+ka,i)×Mi, where Ms is the amount of drug in the stomach; Mi is the amount of drug in the i-th intestinal segment; Ks, Kt,i, and ka,i are the rate constants of gastric emptying, intestinal transit, and the segmental absorption rate, respectively. In Equation (13) at i = 1, Kt,0 and M0 represent Ks and Ms, respectively. […] The absorption rate constant in the intestinal segments in humans, ka,i,human, was assumed to be identical along the segments and calculated as follows: first, Peff was empirically estimated from the Caco-2 cell permeability (Papp):(14) LogPeff=0.4926×LogPapp−0.1454 […]

Compound: CC(C)(C)[C@H](NC(=O)[C@H](CC1CCCC1)CN(O)C=O)C(=O)N1CCC(NCc2cc(F)c(F)cc2F)CC1 [IDP-73152]
- stability in blood and plasma ([1]; rat blood and plasma, preliminary study): unstable
- percentage remaining in plasma at 5 h ([1]; rats plasma, 5 h, 37 °C): 65.3 ± 13.7%
- AUC ratio ([2]; intravenous 10 mg/kg): 1.15
- Cmax ratio without the scaling (SF) ([2]; oral): 1.72
- AUC ratio ([2]; oral 20 mg/kg): 0.880
- Cmax ratio ([2]; oral 20 mg/kg): 0.906
